Source: ChEMBL document CHEMBL1201862, “PubChem BioAssay data set” (2004)
The source made the active and inactive calls.

How the values were obtained:
[1] = reduced cellular PGC1a acetyl-lysine signal – cell-based, cherry-picked samples, dose response (AID 720514); assay type: functional;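 note: potency may reflect raised or lowered acetylation signal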
[2] = viability loss in HeLa cells – cytotoxicity control for MgcRacGAP inhibitor project, dose response (AID 624300); assay type: functional
[3] = target: T1, Rac GTPase-activating protein 1 (Homo sapiens, UniProt Q9H0H5); experiment: blockers of MgcRacGAP-driven Rac1 GTP hydrolysis – biochemical, ADP Hunter fluorescence, primary and confirmatory, confirmation (AID 624330); assay type: functional
T1 sequence (Q9H0H5 whole entry): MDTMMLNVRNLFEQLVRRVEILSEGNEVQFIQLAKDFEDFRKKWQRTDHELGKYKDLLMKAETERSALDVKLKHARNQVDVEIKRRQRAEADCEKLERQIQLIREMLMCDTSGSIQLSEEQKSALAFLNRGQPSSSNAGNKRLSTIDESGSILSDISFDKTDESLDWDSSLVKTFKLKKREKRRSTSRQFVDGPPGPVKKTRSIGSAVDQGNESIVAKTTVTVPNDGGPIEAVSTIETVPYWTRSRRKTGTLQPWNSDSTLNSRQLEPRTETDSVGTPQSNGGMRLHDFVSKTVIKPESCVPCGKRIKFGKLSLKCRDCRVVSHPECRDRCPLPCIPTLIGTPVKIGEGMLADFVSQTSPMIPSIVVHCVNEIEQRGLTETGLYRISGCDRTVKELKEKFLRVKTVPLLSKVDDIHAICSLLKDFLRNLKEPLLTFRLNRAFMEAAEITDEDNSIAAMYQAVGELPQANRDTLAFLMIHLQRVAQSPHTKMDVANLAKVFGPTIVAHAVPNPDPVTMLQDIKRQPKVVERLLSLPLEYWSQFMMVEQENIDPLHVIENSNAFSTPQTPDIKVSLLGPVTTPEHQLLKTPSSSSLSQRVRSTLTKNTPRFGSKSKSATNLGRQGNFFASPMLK

[4] = blockers of bursicon-stimulated LGR2 cAMP reporter – cell-based, HEK293, CRE-luciferase reporter, cherry pick, set 2, dose response (AID 743343); assay type: functional;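 note: transfected cells were stimulated with diluted bursicon conditioned medium after compound addition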
[5] = target: T2, Adenosylmethionine-8-amino-7-oxononanoate aminotransferase (Mycobacterium tuberculosis, UniProt P9WQ81); experiment: Mycobacterium tuberculosis BioA enzyme inhibitor Measured in Biochemical System Using Plate Reader - 2163-02_Inhibitor_Dose_CherryPick_Activity.; assay type: functional, Mycobacterium tuberculosis UT205
T2 sequence (P9WQ81 whole entry): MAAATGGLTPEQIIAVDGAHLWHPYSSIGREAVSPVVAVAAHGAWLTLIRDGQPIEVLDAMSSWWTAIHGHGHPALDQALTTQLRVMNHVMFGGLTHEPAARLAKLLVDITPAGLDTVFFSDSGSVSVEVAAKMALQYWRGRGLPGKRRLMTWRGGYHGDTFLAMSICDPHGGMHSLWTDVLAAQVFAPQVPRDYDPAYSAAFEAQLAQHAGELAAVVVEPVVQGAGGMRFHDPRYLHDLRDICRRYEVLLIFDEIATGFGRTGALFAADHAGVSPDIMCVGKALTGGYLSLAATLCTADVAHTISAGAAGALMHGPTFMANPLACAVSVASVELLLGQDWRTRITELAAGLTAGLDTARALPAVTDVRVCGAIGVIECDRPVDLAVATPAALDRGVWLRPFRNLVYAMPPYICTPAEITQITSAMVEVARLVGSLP

cells [6] = assay type: functional, cell-based
[7] = target: T3, Nuclear receptor subfamily 0 group B member 1 (Homo sapiens, UniProt P51843); assay type: functional, cell-based;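 note: HEK293T cells transfected with SF-1 and DAX-1 plus StAR promoter luciferase reporter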
T3 sequence (P51843 whole entry): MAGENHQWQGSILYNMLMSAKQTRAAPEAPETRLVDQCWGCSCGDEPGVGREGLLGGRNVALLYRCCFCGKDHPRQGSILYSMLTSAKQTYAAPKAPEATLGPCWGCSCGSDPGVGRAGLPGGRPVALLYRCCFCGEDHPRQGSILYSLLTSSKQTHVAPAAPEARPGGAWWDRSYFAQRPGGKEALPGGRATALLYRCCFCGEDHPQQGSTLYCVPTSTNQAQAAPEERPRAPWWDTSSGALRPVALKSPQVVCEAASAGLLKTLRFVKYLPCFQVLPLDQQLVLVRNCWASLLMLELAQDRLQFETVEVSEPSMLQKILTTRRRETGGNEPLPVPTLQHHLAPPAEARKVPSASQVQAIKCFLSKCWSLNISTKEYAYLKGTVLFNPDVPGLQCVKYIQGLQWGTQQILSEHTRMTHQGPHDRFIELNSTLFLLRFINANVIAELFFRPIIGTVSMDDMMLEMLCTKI

Prothrombin = Prothrombin (Homo sapiens, UniProt P00734); experiment: Thrombin 1536 HTS Dose Response Confirmation. [Related pubchem assays: 1046 (Thrombin 1536 HTS; hits were confirmed in this assay)]; assay type: functional
[8] = microbe, parasite or virus in culture; assay type: functional; conditions: Mycobacterium tuberculosis
cells [9] = assay type: functional, cell-based; remark: listed apart in the source
[10] = target: T4, Trace amine-associated receptor 1 (Homo sapiens, UniProt Q96RJ0); experiment: Fluorescence-based cell-based high throughput dose response assay to identify agonists of the human trace amine associated receptor 1 (TAAR1).; assay type: functional
T4 sequence (Q96RJ0 whole entry): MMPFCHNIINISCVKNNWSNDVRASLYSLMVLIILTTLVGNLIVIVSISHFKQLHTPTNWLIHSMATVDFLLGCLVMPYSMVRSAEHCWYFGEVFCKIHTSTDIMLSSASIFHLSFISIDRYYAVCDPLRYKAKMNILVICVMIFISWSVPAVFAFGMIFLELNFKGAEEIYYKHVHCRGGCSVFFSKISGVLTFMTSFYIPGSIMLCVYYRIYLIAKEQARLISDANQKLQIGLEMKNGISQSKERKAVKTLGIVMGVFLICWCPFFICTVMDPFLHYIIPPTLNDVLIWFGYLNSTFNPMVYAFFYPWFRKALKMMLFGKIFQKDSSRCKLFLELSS

[11] = target: T4, Trace amine-associated receptor 1; experiment: Counterscreen for agonists of the human trace amine associated receptor 1 (hTAAR1): Fluorescence-based cell-based high throughput dose response assay to identify hTAAR1 agonist that also desensitize TAAR1 receptor response.; assay type: functional
cells [12] = assay type: functional, cell-based; remark: listed apart in the source
[13] = viability loss in THP-1 monocytes – THP-1 cells, cytotoxicity control for Vif-APOBEC3G degradation inhibitor project, dose response (AID 1117359); assay type: functional; conditions: THP-1
[14] = target: Nuclear receptor subfamily 5 group A member 2 (Homo sapiens, UniProt O00482); assay type: functional, cell-based;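 note: HEK293T cells transfected with LRH-1 and a StAR promoter luciferase reporter; potency for inhibitors that lower LRH-1 driven reporter light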
Nuclear receptor subfamily 5 group A member 2, sequence (O00482 whole entry): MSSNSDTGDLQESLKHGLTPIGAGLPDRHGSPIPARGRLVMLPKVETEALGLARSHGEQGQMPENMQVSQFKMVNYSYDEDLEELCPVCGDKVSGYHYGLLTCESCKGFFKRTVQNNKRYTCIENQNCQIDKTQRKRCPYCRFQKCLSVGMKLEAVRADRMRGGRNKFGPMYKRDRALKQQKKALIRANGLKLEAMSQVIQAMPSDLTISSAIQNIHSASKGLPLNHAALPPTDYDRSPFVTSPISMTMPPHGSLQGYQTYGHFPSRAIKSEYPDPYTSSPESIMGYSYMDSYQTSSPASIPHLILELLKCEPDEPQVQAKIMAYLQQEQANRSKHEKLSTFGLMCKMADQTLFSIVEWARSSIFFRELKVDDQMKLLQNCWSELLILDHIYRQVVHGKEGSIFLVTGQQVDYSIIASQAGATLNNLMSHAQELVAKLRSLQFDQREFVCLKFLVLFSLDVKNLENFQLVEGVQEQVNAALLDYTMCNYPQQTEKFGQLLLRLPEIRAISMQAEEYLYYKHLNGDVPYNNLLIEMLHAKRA

Fatty acid synthase [15] = target: T5, Fatty acid synthase (Homo sapiens, UniProt P49327); experiment: inhibition of human FAS-TE enzyme activity – biochemical, endpoint fluorescence intensity, uHTS hits, dose response (AID 624327); assay type: functional;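 note: fluorescence from hydrolysis of an O-methyl fluorescein acyl ester substrate by the enzyme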
T5 sequence (P49327 whole entry): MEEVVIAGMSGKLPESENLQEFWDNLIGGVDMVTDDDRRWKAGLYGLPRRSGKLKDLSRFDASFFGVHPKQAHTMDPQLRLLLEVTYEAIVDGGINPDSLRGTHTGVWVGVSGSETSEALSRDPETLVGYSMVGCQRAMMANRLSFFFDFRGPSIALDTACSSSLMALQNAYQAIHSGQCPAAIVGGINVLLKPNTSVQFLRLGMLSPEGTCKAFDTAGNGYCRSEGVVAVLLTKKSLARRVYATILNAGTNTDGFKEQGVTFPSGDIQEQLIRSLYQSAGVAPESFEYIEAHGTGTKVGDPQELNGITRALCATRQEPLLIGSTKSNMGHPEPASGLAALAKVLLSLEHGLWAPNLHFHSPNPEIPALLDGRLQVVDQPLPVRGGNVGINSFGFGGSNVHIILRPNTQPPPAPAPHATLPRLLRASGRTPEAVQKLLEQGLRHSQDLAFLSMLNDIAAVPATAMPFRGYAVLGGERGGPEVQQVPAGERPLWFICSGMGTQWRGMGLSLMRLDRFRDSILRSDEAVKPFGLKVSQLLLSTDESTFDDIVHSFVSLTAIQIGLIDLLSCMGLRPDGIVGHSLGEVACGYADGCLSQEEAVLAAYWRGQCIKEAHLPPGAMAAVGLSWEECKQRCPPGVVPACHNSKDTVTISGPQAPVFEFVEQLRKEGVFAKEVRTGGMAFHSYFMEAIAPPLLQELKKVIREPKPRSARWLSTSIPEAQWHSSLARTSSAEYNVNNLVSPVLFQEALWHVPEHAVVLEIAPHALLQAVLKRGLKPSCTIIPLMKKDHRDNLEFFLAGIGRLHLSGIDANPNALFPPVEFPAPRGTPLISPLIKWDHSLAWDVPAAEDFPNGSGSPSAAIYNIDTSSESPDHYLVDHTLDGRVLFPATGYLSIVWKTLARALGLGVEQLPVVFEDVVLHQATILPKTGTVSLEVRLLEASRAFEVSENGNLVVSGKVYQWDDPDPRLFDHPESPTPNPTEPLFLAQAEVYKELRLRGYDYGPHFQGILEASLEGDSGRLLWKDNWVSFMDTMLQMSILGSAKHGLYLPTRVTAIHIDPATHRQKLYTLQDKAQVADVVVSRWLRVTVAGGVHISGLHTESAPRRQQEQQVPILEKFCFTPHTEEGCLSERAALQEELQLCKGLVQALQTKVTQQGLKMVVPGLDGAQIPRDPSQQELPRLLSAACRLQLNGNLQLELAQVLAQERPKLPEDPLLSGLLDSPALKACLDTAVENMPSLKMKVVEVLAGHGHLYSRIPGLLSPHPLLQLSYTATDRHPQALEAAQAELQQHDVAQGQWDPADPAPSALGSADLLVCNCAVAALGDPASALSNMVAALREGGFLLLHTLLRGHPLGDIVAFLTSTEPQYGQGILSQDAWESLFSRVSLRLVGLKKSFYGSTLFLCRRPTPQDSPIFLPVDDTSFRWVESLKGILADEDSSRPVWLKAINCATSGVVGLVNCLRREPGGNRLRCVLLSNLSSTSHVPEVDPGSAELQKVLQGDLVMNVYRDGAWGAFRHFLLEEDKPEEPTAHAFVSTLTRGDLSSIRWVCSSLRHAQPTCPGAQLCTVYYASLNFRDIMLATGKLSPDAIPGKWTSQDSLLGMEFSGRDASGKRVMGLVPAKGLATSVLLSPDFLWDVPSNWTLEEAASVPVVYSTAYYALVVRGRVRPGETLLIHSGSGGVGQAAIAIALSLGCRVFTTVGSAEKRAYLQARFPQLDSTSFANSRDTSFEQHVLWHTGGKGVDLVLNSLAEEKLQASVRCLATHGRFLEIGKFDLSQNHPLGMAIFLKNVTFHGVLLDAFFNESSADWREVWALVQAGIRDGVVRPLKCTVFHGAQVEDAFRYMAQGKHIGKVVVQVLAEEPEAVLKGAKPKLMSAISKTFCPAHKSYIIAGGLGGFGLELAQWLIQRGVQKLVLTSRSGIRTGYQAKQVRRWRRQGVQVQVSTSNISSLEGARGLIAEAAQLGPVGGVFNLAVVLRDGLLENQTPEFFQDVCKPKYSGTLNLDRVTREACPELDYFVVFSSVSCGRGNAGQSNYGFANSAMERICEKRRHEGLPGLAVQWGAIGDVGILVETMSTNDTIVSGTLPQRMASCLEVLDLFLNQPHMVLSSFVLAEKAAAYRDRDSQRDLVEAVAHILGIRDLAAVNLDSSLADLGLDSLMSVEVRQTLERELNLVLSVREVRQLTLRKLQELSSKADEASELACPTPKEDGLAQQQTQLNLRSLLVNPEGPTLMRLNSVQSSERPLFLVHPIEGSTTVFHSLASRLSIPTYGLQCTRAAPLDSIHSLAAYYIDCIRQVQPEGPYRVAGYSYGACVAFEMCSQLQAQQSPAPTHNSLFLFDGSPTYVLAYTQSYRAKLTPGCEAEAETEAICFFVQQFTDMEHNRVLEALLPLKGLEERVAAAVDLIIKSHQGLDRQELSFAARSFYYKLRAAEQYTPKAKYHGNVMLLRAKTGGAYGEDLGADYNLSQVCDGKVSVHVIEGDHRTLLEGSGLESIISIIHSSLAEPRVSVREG

Steroidogenic factor 1 = Steroidogenic factor 1 (Homo sapiens, UniProt Q13285); experiment: Counterscreen for inverse agonists of the liver receptor homolog-1 (LRH-1; NR5A2): Luminescence-based cell-based high throughput dose response assay to identify inverse agonists of the Steroidogenic Factor 1 Nuclear Receptor (SF1; NR5A1).; assay type: functional
Steroidogenic factor 1, sequence (Q13285 whole entry): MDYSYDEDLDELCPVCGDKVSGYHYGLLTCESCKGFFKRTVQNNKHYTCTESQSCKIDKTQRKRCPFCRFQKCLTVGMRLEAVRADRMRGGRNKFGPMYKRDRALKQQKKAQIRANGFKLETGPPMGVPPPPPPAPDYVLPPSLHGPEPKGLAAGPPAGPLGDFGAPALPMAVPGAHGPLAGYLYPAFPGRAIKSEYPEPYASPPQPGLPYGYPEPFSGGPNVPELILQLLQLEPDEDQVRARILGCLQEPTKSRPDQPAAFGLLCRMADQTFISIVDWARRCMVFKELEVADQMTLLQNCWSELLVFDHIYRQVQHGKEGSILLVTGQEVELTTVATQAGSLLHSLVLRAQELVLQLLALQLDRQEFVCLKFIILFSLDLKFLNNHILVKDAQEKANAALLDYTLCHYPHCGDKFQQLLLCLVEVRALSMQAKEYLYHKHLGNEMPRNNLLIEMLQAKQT

[16] = nonselective StAR promoter luciferase inhibitors – cell-based, luminescence, luciferase reporter, counter-screen for LRH-1 inverse agonist project, dose response (AID 651969); assay type: functional
Fatty acid synthase [17] = target: T5, Fatty acid synthase; experiment: inhibition of human FAS-TE enzyme activity – biochemical, kinetic fluorescence intensity, dose response (AID 624326); assay type: functional;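 note: rate of fluorescence rise from hydrolysis of a fluorogenic O-methyl fluorescein ester substrate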

With `COc1cc(CNCCN2CCOCC2)ccc1OCc1ccc(Cl)cc1Cl` the AC50 [1] was 17.3 µM (active).

In the case of `COc1cc(/C=C2\C(=O)N(C)C(=S)N2C)ccc1O`, the CC50 [2] is reported as 100 µM (active) and the IC50 [3] is reported as 31.9 µM (active).

With `CCc1ccc2ncc(S(=O)(=O)c3ccc(C)c(C)c3)c(N3CCCC3)c2c1` the AC50 [4] was 48.2 µM (active).

With `O=C(C1CCCN(S(=O)(=O)c2cccnc2)C1)N1CCn2c1nc1ccccc12` (stereo not drawn) the AC50 [5] was 14 µM (active).

In the case of `CN1CCN(C(=O)c2cc(COc3ccccc3)on2)[C@@H](c2ccccc2)C1`, the IC50 (cells [6]) is reported as > 67.6 µM (inactive) and the IC50 [7] is reported as > 67.6 µM (inactive).

With `COc1ccc(C2c3c(-c4cc(Cl)c(C)cc4O)n[nH]c3C(=O)N2Cc2cccnc2)cc1OC` (stereo not drawn) the IC50 (Prothrombin) was > 50 µM (not active) and the AC50 [5] was 0.102 µM (active).

With `CCCCOP(=O)(OCCCC)C(Nc1ccc(C(=O)OCC)cc1)c1ccncc1` (stereo not drawn) the CC50 [8] was > 40 µM (active).

In the case of `CNCC(C)c1ccccc1` (stereo not drawn), the IC50 (cells [9]) is reported as > 29.9 µM (inactive), the EC50 [10] is reported as 598 nM (active) and the IC50 [11] is reported as 3.54 µM (active). The EC50 (cells [12]) was > 29.9 µM (inactive).

For `CCCC(C)NC(=O)CSCc1ccc(OC)cc1` (stereo not drawn), the CC50 [13] was > 40 µM (active).

With `O=C(Nc1ccc(Cc2ccncc2)cc1)c1cccc([N+](=O)[O-])c1` the IC50 [14] was 35.9 µM (inactive), the IC50 (Fatty acid synthase [15]) was 7.76 µM (active) and the IC50 (Steroidogenic factor 1) was 1.33 µM (active). For the same molecule, the IC50 [16] was 35.9 µM (inactive) and the IC50 (Fatty acid synthase [17]) was 10.5 µM (active).

With `COc1cccc(-n2c(S)nnc2-c2cccc(S(=O)(=O)N(C)C)c2)c1` the AC50 [1] was 39 µM (active).

For `Clc1ccc2c(c1)C(c1ccccc1Cl)=NCc1nnc(N3CCN(CCOc4ccccc4)CC3)n1-2`, the CC50 [8] was > 40 µM (active).

For `COc1cccc(C(=O)/C=C2\Sc3ccccc3N2C)c1`, the CC50 [8] was > 40 µM (active).
